Experimental data taken from PubChem BioAssay (NCI).
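Grown in 96-well plates, cells were treated for 48 hours with each compound at five concentrations. Insufficient inhibition: endpoint recorded as highest concentration tested. GI50 is the concentration that inhibits growth by half. The concentration for full growth arrest is given as TGI.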

Columns and labels:
Test in all cases: inhibition of tumour cell growth, NCI panel, 48 h
[1] = tested on: RXF 393 renal
[2] = tested on: LOX IMVI melanoma
[3] = tested on: M14 melanoma
[4] = tested on: IGROV1 ovarian
[5] = tested on: KM12 colon
[6] = tested on: SW-620 colon
[7] = tested on: MOLT-4 leukemia
[8] = tested on: SF-295 CNS
[9] = tested on: TK-10 renal
[10] = tested on: UO-31 renal
[11] = tested on: CCRF-CEM leukemia
[12] = tested on: ACHN renal
[13] = tested on: SNB-19 CNS
[14] = tested on: HOP-62 NSCLC
[15] = tested on: OVCAR-5 ovarian
[16] = tested on: SK-MEL-5 melanoma
[17] = tested on: HCT-116 colon
[18] = tested on: UACC-257 melanoma
[19] = tested on: SK-MEL-28 melanoma
[20] = tested on: HOP-92 NSCLC
[21] = tested on: COLO 205 colon
[22] = tested on: UACC-62 melanoma
[23] = tested on: EKVX NSCLC
[24] = tested on: NCI-H522 lung
[25] = tested on: RPMI-8226 leukemia
[26] = tested on: MCF7 breast
[27] = tested on: T-47D breast
[28] = tested on: OVCAR-3 ovarian
[29] = tested on: HL-60(TB) leukemia

With O=C(Nc1cccc(C(F)(F)F)c1)Oc1ccc(Cl)c2cccnc12 the GI50 [1] was 1.2 µM, the TGI [1] was 5.49 µM and the GI50 [2] was 0.764 µM. The TGI [2] was 4.02 µM, the GI50 [3] was 1.49 µM and the TGI [3] was 7.83 µM. The GI50 [4] was 1.22 µM, the TGI [4] was 4.43 µM and the GI50 [5] was 3.94 µM. The TGI [5] was 13.4 µM, the GI50 [6] was 1.49 µM and the TGI [6] was 12.9 µM. For the same molecule, the GI50 [7] was 0.86 µM, the TGI [7] was 22.8 µM and the GI50 [8] was 0.976 µM. It also gave a TGI [8] of 6.93 µM, a GI50 [9] of 4.1 µM and a TGI [9] of 21.4 µM. It also gave a GI50 [10] of 1.06 µM, a TGI [10] of 5.39 µM and a GI50 [11] of 0.708 µM. For the same molecule, the TGI [11] was 16.1 µM, the GI50 [12] was 1.23 µM and the TGI [12] was 5.43 µM. The GI50 [13] was 2.52 µM, the TGI [13] was greater than 32.8 µM and the GI50 [14] was 2.99 µM. For the same molecule, the TGI [14] was 11 µM, the GI50 [15] was 3.6 µM and the TGI [15] was 18 µM. It also gave a GI50 [16] of 1.31 µM, a TGI [16] of 2.88 µM and a GI50 [17] of 0.615 µM. It also gave a TGI [17] of 8.03 µM, a GI50 [18] of 1.32 µM and a TGI [18] of 3.24 µM. It also gave a GI50 [19] of 4.29 µM, a TGI [19] of 17.8 µM and a GI50 [20] of 0.462 µM. It also gave a TGI [20] of 4.02 µM, a GI50 [21] of 2.48 µM and a TGI [21] of 6.39 µM. The GI50 [22] was 1.15 µM, the TGI [22] was 3.57 µM and the GI50 [23] was 1.83 µM. For the same molecule, the TGI [23] was 6.88 µM, the GI50 [24] was 0.906 µM and the TGI [24] was 4.28 µM. It also gave a GI50 [25] of 0.561 µM, a TGI [25] of 4.22 µM and a GI50 [26] of 1.46 µM. The TGI [26] was 6.77 µM, the GI50 [27] was 1.8 µM and the TGI [27] was greater than 28.2 µM. It also gave a GI50 [28] of 0.832 µM, a TGI [28] of 6.93 µM and a GI50 [29] of 0.776 µM.
